The source made the active and inactive calls. The calls are words filed in the database; no cut-off is given here.
What was measured:
[1] = tested on: Caenorhabditis elegans; test: Antioxidant activity in Caenorhabditis elegans N2 assessed as reduction in ROS generation H2DCFDA dye based fluorescent assay; assay type: functional
[2] = molecular target: Alpha-synuclein (Homo sapiens) (UniProt P37840); test: Inhibition of YFP-tagged human alpha-synuclein aggregation expressed in transgenic Caenorhabditis elegans model NL5901 incubated for 48 hrs by fluorescent microscopy relative to untreated control
[3] = molecular target: T1, Acetylcholinesterase 1 (Caenorhabditis elegans) (UniProt P38433); test: Inhibition of AChE in Caenorhabditis elegans assessed as increase in acetylcholine after 48 hrs by Amplex red assay
T1 sequence (whole entry): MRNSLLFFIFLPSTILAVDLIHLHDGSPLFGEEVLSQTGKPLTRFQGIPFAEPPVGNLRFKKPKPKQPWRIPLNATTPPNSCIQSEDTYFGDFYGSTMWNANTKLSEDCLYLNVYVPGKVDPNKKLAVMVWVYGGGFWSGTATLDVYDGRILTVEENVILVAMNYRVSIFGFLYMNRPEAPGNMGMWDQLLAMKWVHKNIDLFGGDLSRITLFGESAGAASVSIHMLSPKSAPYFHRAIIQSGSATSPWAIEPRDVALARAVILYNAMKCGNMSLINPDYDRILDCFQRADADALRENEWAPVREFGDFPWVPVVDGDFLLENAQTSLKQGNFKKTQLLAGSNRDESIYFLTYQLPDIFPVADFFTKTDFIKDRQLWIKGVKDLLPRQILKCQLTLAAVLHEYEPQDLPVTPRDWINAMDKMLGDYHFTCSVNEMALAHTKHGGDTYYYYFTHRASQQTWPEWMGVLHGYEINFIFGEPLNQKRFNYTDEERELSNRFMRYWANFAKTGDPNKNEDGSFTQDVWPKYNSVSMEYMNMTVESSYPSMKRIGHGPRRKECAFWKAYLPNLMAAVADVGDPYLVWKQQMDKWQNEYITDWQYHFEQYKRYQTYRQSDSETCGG

[4] = tested on: Caenorhabditis elegans; test: Increase in DAF16 nuclear localization in GFP expressing Caenorhabditis elegans TJ356 after 48 hrs by fluorescence microscopy; assay type: functional, organism-based
[5] = tested on: HEK293; test: Cytotoxicity against HEK293 cells assessed as inhibition of cell proliferation at 2 mM after 48 hrs by MTT assay; assay type: functional; settings: Homo sapiens, HEK293, 48 h; read-out: GI
[6] = tested on: Caenorhabditis elegans; test: […] content in Caenorhabditis elegans NL5901 assessed as reduction in response time after 48 hrs nonanol repulsion assay; assay type: functional
[7] = tested on: HEK293; test: Cytotoxicity against HEK293 cells assessed as inhibition of cell proliferation at 500 uM after 48 hrs by MTT assay; assay type: functional; settings: Homo sapiens, HEK293, 48 h; read-out: GI
[8] = tested on: HepG2; test: Cytotoxicity against human HepG2 cells assessed as inhibition of cell proliferation at 500 uM after 48 hrs by MTT assay; assay type: functional; settings: HepG2, 48 h, read-out: GI
[9] = tested on: HepG2; test: Cytotoxicity against human HepG2 cells assessed as inhibition of cell proliferation at 2 mM after 48 hrs by MTT assay; assay type: functional; settings: HepG2, 48 h, read-out: GI
[10] = tested on: Caenorhabditis elegans; test: […] content in Caenorhabditis elegans N2 assessed as reduction in response time after 48 hrs nonanol repulsion assay; assay type: functional

COc1ccc(-c2cc3cc(C4C5=C(CC(C)(C)CC5=O)Oc5nc6c(c(N)c54)CCC6)cc(C(C)C)c3oc2=O)cc1 (racemic)
fold change (FC) [1]: 2.16 | inhibition [2]: inactive | fold change (FC) [3]: 1.5

COc1cc(-c2cc3cc(C4C5=C(CCCC5=O)Oc5nc6c(c(N)c54)CCCC6)cc(C(C)C)c3oc2=O)cc(OC)c1OC (racemic)
Activity [4]: Active | fold change (FC) [1]: 1.72 | inhibition of growth at 2000 µM [5]: 73.8% | fold change (FC) [6]: 1.75 | inhibition of growth at 500 µM [7]: 54% | inhibition of growth at 500 µM [8]: 26.1% | fold change (FC) [2]: 2.6 | fold change (FC) [3]: 1.2 | inhibition of growth at 2000 µM [9]: 27.8% | fold change (FC) [10]: 2.6

CCC(C)c1cc(C2C3=C(CCCC3=O)Oc3nc4c(c(N)c32)CCCC4)cc2cc(-c3cc(OC)c(OC)c(OC)c3)c(=O)oc12 (racemic)
Activity [4]: inactive | fold change (FC) [1]: 1.84 | inhibition of growth at 2000 µM [5]: 56.9% | fold change (FC) [6]: 1.9 | inhibition of growth at 500 µM [7]: 6.5% | inhibition of growth at 500 µM [8]: 8.66% | fold change (FC) [2]: 2.1 | fold change (FC) [3]: 1.15 | inhibition of growth at 2000 µM [9]: 16.5% | fold change (FC) [10]: 1.8

CCC(C)c1cc(C2C3=C(CC(C)(C)CC3=O)Oc3nc4c(c(N)c32)CCCC4)cc2cc(-c3cc(OC)c(OC)c(OC)c3)c(=O)oc12 (racemic)
fold change (FC) [2]: 1.35 | inhibition [3]: inactive

CCC(C)c1cc(C2C3=C(CC(C)(C)CC3=O)Oc3nc4c(c(N)c32)CCCC4)cc2cc(-c3ccc(OC)cc3)c(=O)oc12 (racemic)
fold change (FC) [2]: 2 | fold change (FC) [3]: 1.51

CCC(C)c1cc(C2C3=C(CCCC3=O)Oc3nc4c(c(N)c32)CCC4)cc2cc(-c3cc(OC)c(OC)c(OC)c3)c(=O)oc12 (racemic)
fold change (FC) [2]: 1.76 | fold change (FC) [3]: 1.14

COc1ccc(-c2cc3cc(C4C5=C(CC(C)(C)CC5=O)Oc5nc6c(c(N)c54)CCC6)cc(C(C)C)c3oc2=O)cc1OC (racemic)
inhibition [2]: inactive | fold change (FC) [3]: 1.19

COc1ccc(-c2cc3cc(C4C5=C(CC(C)(C)CC5=O)Oc5nc6c(c(N)c54)CCCC6)cc(C(C)C)c3oc2=O)cc1 (racemic)
fold change (FC) [3]: 1.88

COc1ccc(-c2cc3cc(C4C5=C(CC(C)(C)CC5=O)Oc5nc6c(c(N)c54)CCCC6)cc(C(C)C)c3oc2=O)cc1OC (racemic)
inhibition [2]: inactive | fold change (FC) [3]: 1.16

Nc1c2c(nc3ccccc13)CCCC2 [TACRINE]
inhibition of growth at 2000 µM [5]: 83% | inhibition of growth at 500 µM [7]: 72.3% | inhibition of growth at 500 µM [8]: 83.4% | inhibition of growth at 2000 µM [9]: 86.9%
